Earlier results in PubChem BioAssay AID1259409 (Chemical Carcinogenesis Research Information System (CCRIS), 2018).

System: rodent chemically induced tumor inhibition, incidence and multiplicity
Experiment: CCRIS tumor inhibitor studies
Settings: for tumour outcome (control, treated, inhibition, significance): Promoter: NONE USED; for outcome: Carcinogen: 7,12-DIMETHYLBENZ[A]ANTHRACENE (57-97-6), Target Tissue: Type of Lesion: MAMMARY: ADENOCARCINOMA

| Compound | tumour outcome (control, treated, inhibition, significance) (Carcinogen: 7,12-DIMETHYLBENZ[A]ANTHRACENE, 57-97-6, Dose [Inhibitor]: 0, 25 PPM IN DIET BEGINNING 2 WK PRIOR TO CARCINOGEN DOSE AND CONTINUING FOR 1 WK POST CARCINOGEN DOSE (STUDY DURATION:, Route [Inhibitor]: ORAL, Species: RAT, Strain/Sex: SPRAGUE-DAWLEY/FEMALE, Target Tissue: Type of Lesion: MAMMARY GLAND: TUMOR, Dose [Carcinogen]: 10 MG IN 1 ML OLIVE OIL ONCE AT 7 WK OF AGE) | tumour outcome (control, treated, inhibition, significance) (Carcinogen: 7,12-DIMETHYLBENZ[A]ANTHRACENE, 57-97-6, Dose [Inhibitor]: 0.03 NMOL/G DIET DAILY FOR 17 WK STARTING 1 WK PRIOR TO CARCINOGEN TREATMENT AND CONTINUING THROUGH THE END OF THE STUDY, Route [Inhibitor]: ORAL, Species: RAT, Strain/Sex: SPRAGUE-DAWLEY/FEMALE, Target Tissue: Type of Lesion: MAMMARY GLAND: TUMOR, Dose [Carcinogen]: 12 MG IN 1 ML OLIVE OIL ONCE) | tumour outcome (control, treated, inhibition, significance) (Carcinogen: 7,12-DIMETHYLBENZ[A]ANTHRACENE, 57-97-6, Dose [Inhibitor]: 5.0 MG/G DIET AT AGE 9 WK SIMULTANEOUSLY WITH CARCINOGEN, 3/WK FOR 4 WK (STUDY DURATION: 20 WK), Route [Inhibitor]: ORAL, Species: MOUSE, Strain/Sex: ICR/FEMALE, Target Tissue: Type of Lesion: FORESTOMACH: TUMOR, Dose [Carcinogen]: 0.05 MG/G DIET AT AGE 9 WK, 3/WK FOR 4 WK) | tumour outcome (control, treated, inhibition, significance) (Carcinogen: 7,12-DIMETHYLBENZ[A]ANTHRACENE, 57-97-6, Dose [Inhibitor]: 50 MG ONCE 2 HR BEFORE DMBA TREATMENT (STUDY DURATION: 18 WK), Route [Inhibitor]: INTRAGASTRIC, Species: RAT, Strain/Sex: SPRAGUE-DAWLEY/FEMALE, Target Tissue: Type of Lesion: MAMMARY GLAND: TUMOR, Dose [Carcinogen]: 12 MG IN 1 ML OLIVE OIL AT AGE 7 WK 2 HR AFTER AGENT TREATMENT) | tumour outcome (control, treated, inhibition, significance) (Carcinogen: 7,12-DIMETHYLBENZ[A]ANTHRACENE, 57-97-6, Dose [Inhibitor]: 50 MG ONCE 4 HR BEFORE DMBA TREATMENT (STUDY DURATION: 18 WK), Route [Inhibitor]: INTRAGASTRIC, Species: RAT, Strain/Sex: SPRAGUE-DAWLEY/FEMALE, Target Tissue: Type of Lesion: MAMMARY GLAND: TUMOR, Dose [Carcinogen]: 12 MG IN 1 ML OLIVE OIL AT AGE 7 WK 4 HR AFTER AGENT TREATMENT) | tumour outcome (control, treated, inhibition, significance) (Carcinogen: BENZO[A]PYRENE, 50-32-8, Dose [Inhibitor]: 0, 0.045 UMOL/G DIET BEGINNING 1 WK PRIOR TO CARCINOGEN TREATMENT AND CONTINUING FOR 1 WK POST CARCINOGEN TREATMENT FOLL, Route [Inhibitor]: ORAL, Species: MOUSE, Strain/Sex: CD-1/FEMALE, Target Tissue: Type of Lesion: FORESTOMACH: PAPILLOMA, Dose [Carcinogen]: 1 MG IN 0.2 ML CORN OIL 2/WK FOR 4 WK) | tumour outcome (control, treated, inhibition, significance) (Carcinogen: DIETHYLNITROSAMINE, 55-18-5, Dose [Inhibitor]: 0, 100 PPM IN DIET FOR DURATION OF STUDY BEGINNING 1 WK PRIOR TO CARCINOGEN DOSE (STUDY DURATION: 53 WK), Route [Inhibitor]: ORAL, Species: RAT, Strain/Sex: ACI/MALE, Target Tissue: Type of Lesion: LIVER: HEPATOCELLULAR ADENOMA, Dose [Carcinogen]: 200 MG/KG BW ONCE) | tumour outcome (control, treated, inhibition, significance) (Carcinogen: DIETHYLNITROSAMINE, 55-18-5, Dose [Inhibitor]: 0, 100 PPM IN DIET FOR DURATION OF STUDY BEGINNING 1 WK PRIOR TO CARCINOGEN DOSE (STUDY DURATION: 53 WK), Route [Inhibitor]: ORAL, Species: RAT, Strain/Sex: ACI/MALE, Target Tissue: Type of Lesion: LIVER: HEPATOCELLULAR CARCINOMA, Dose [Carcinogen]: 200 MG/KG BW ONCE) | tumour outcome (control, treated, inhibition, significance) (Carcinogen: METHYLAZOXYMETHANOL ACETATE, 592-62-1, Dose [Inhibitor]: 0, 100 PPM IN DIET FOR 4 WK BEGINNING 1 WK PRIOR TO CARCINOGEN TREATMENT (STUDY DURATION: 49 WK), Route [Inhibitor]: ORAL, Species: RAT, Strain/Sex: ACI/FEMALE, Target Tissue: Type of Lesion: COLON: CARCINOMA, Dose [Carcinogen]: 25 MG/KG BW 1/WK FOR 3 WK) | tumour outcome (control, treated, inhibition, significance) (Carcinogen: METHYLAZOXYMETHANOL ACETATE, 592-62-1, Dose [Inhibitor]: 0, 100 PPM IN DIET FOR 4 WK BEGINNING 1 WK PRIOR TO CARCINOGEN TREATMENT (STUDY DURATION: 49 WK), Route [Inhibitor]: ORAL, Species: RAT, Strain/Sex: ACI/FEMALE, Target Tissue: Type of Lesion: SMALL INTESTINE: ADENOMA OR CARCINOMA, Dose [Carcinogen]: 25 MG/KG BW 1/WK FOR 3 WK) | tumour outcome (control, treated, inhibition, significance) (Carcinogen: METHYLAZOXYMETHANOL ACETATE, 592-62-1, Dose [Inhibitor]: 0, 100 PPM IN DIET FOR 46 WK BEGINNING 1 WK POST CARCINOGEN TREATMENT (STUDY DURATION: 49 WK), Route [Inhibitor]: ORAL, Species: RAT, Strain/Sex: ACI/FEMALE, Target Tissue: Type of Lesion: COLON: ADENOMA OR CARCINOMA, Dose [Carcinogen]: 25 MG/KG BW 1/WK FOR 3 WK) | tumour outcome (control, treated, inhibition, significance) (Carcinogen: METHYLAZOXYMETHANOL ACETATE, 592-62-1, Dose [Inhibitor]: 0, 100 PPM IN DIET FOR 46 WK BEGINNING 1 WK POST CARCINOGEN TREATMENT (STUDY DURATION: 49 WK), Route [Inhibitor]: ORAL, Species: RAT, Strain/Sex: ACI/FEMALE, Target Tissue: Type of Lesion: SMALL INTESTINE: ADENOMA OR CARCINOMA, Dose [Carcinogen]: 25 MG/KG BW 1/WK FOR 3 WK) | tumour outcome (control, treated, inhibition, significance) (Carcinogen: METHYLAZOXYMETHANOL ACETATE, 592-62-1, Dose [Inhibitor]: 0, 400 PPM IN DIET FOR 4 WK BEGINNING 1 WK PRIOR TO CARCINOGEN TREATMENT (STUDY DURATION: 49 WK), Route [Inhibitor]: ORAL, Species: RAT, Strain/Sex: ACI/FEMALE, Target Tissue: Type of Lesion: COLON: ADENOMA OR CARCINOMA, Dose [Carcinogen]: 25 MG/KG BW 1/WK FOR 3 WK) | tumour outcome (control, treated, inhibition, significance) (Carcinogen: METHYLAZOXYMETHANOL ACETATE, 592-62-1, Dose [Inhibitor]: 0, 400 PPM IN DIET FOR 4 WK BEGINNING 1 WK PRIOR TO CARCINOGEN TREATMENT (STUDY DURATION: 49 WK), Route [Inhibitor]: ORAL, Species: RAT, Strain/Sex: ACI/FEMALE, Target Tissue: Type of Lesion: SMALL INTESTINE: CARCINOMA, Dose [Carcinogen]: 25 MG/KG BW 1/WK FOR 3 WK) | tumour outcome (control, treated, inhibition, significance) (Carcinogen: METHYLAZOXYMETHANOL ACETATE, 592-62-1, Dose [Inhibitor]: 0, 400 PPM IN DIET FOR 46 WK BEGINNING 1 WK POST CARCINOGEN TREATMENT (STUDY DURATION: 49 WK), Route [Inhibitor]: ORAL, Species: RAT, Strain/Sex: ACI/FEMALE, Target Tissue: Type of Lesion: COLON: ADENOMA OR CARCINOMA, Dose [Carcinogen]: 25 MG/KG BW 1/WK FOR 3 WK) | tumour outcome (control, treated, inhibition, significance) (Carcinogen: METHYLAZOXYMETHANOL ACETATE, 592-62-1, Dose [Inhibitor]: 0, 400 PPM IN DIET FOR 46 WK BEGINNING 1 WK POST CARCINOGEN TREATMENT (STUDY DURATION: 49 WK), Route [Inhibitor]: ORAL, Species: RAT, Strain/Sex: ACI/FEMALE, Target Tissue: Type of Lesion: SMALL INTESTINE: ADENOMA OR CARCINOMA, Dose [Carcinogen]: 25 MG/KG BW 1/WK FOR 3 WK) | outcome (Dose [Inhibitor]: 10 MG/KG BW DAILY BETWEEN 45 AND 59 D OF AGE (STUDY DURATION: 1 YR), Route [Inhibitor]: INTRAGASTRIC (GASTRIC) IN HYDROXYETHYLCELLULOSE SODIUM, Species: RAT, Strain/Sex: SPRAGUE-DAWLEY/FEMALE, Dose [Carcinogen]: 75 MG/KG BW IN SESAME OIL (ONCE) AT 60 D OF AGE) | outcome (Dose [Inhibitor]: 10 MG/KG BW DAILY FOR 6 MO AFTER CARCINOGEN ADMINISTRATION, Route [Inhibitor]: INTRAGASTRIC (GASTRIC), Species: RAT, Strain/Sex: SPRAGUE-DAWLEY/FEMALE, Dose [Carcinogen]: 75 MG/KG BW AT 55 D OF AGE (STUDY DURATION: 1 YR)) |
| --- | --- | --- | --- | --- | --- | --- | --- | --- | --- | --- | --- | --- | --- | --- | --- | --- | --- | --- |
| N#CSCc1ccccc1 | 19/21 (91%), 19/21 (91%), 0% | 79%, 8%, 90%, p<0.001 | 87%, 80%, 8%, not significant | 77%, 55%, 28%, not significant | 100%, 36%, 64%, p<0.001 | 85%, 84%, 1%, not significant | 10/18 (55%), 6/16 (38%), 31%, not significant | 6/18 (33%), 2/16 (13%), 61%, not significant | 11/18 (61%), 10/12 (83%), -36%, not significant | 11/18 (61%), 8/12 (67%), -10%, not significant | 15/18 (83%), 18/19 (95%), -14%, not significant | 11/18 (61%), 8/19 (42%), 31%, not significant | 15/18 (83%), 17/21 (81%), 2%, not significant | 10/18 (56%), 1/21 (5%), 91%, not calculated | 15/18 (83%), 13/18 (72%), 13%, not significant | 11/18 (61%), 3/18 (17%), 72%, p<0.01 |  |  |
| CC1=CCC(O)(C(C)C)CC1 (stereo not drawn) |  |  |  |  |  |  |  |  |  |  |  |  |  |  |  |  | 75%, 85% | 75%, 58% |
